We go through one molecule from PMC8880564, “Design, Synthesis, and Biological Evaluation of a Novel VEGFR-2 Inhibitor Based on a 1,2,5-Oxadiazole-2-Oxide Scaffold with MAPK Signaling Pathway Inhibition” (Pharmaceuticals, 2022).

What all share (assay type): cell-based
Experiment [1] relates to NCI-59 human cancer cell lines. As to the kind of experiment: NCI-60 one-dose SRB screening, full panel and subpanels. Conditions: Homo sapiens; mean over the full panel; 10 µM one dose, 48 h, SRB; read-out: growth percentage, Mean.
The subject of experiment [2] is DU-145. As to the kind of experiment: NCI-60 one-dose SRB screening. As to conditions: Homo sapiens, DU-145, Prostate Cancer, 10 µM one dose, 48 h, read-out: growth percentage.
The subject of experiment [3] is MDA-MB-231/ATCC. Nature of the experiment: NCI-60 one-dose SRB screening. As to conditions: Homo sapiens, Breast Cancer, 10 µM one dose, 48 h, read-out: growth percentage.
The subject of experiment [4] is U251. Nature of the experiment: NCI-60 one-dose SRB screening. As to conditions: Homo sapiens, U-251, U251, CNS Cancer, 10 µM one dose, 48 h, read-out: growth percentage.
In experiment [5] the test system is RXF 393. Nature of the experiment: NCI-60 one-dose SRB screening. As to conditions: Homo sapiens, RXF 393, Renal Cancer, 10 µM one dose, 48 h, read-out: growth percentage.
Experiment [6] relates to HCT-15. As to the kind of experiment: NCI-60 one-dose SRB screening. Conditions: Homo sapiens, HCT-15, Colon Cancer, 10 µM one dose, 48 h, read-out: growth percentage.
Experiment [7] concerns MALME-3M. As to the kind of experiment: NCI-60 one-dose SRB screening. Conditions: Homo sapiens, Melanoma, 10 µM one dose, 48 h, read-out: growth percentage.
In experiment [8] the test system is A549/ATCC. As to the kind of experiment: NCI-60 one-dose SRB screening. Conditions: Homo sapiens, Non-Small Cell Lung Cancer, 10 µM one dose, 48 h, read-out: growth percentage.
Experiment [9] has as its system SK-MEL-28. Nature of the experiment: NCI-60 one-dose SRB screening. Conditions: Homo sapiens, SK-MEL-28, Melanoma, 10 µM one dose, 48 h, read-out: growth percentage.
The test system of experiment [10] is OVCAR-8. As to the kind of experiment: NCI-60 one-dose SRB screening. Conditions: Homo sapiens, OVCAR-8, Ovarian Cancer, 10 µM one dose, 48 h, read-out: growth percentage.
The subject of experiment [11] is TK-10. As to the kind of experiment: NCI-60 one-dose SRB screening. As to conditions: Homo sapiens, TK-10, Renal Cancer, 10 µM one dose, 48 h, read-out: growth percentage.
For experiment [12], the system named is NCI-H522. Nature of the experiment: NCI-60 one-dose SRB screening. As to conditions: Homo sapiens, NCI-H522, Non-Small Cell Lung Cancer, 10 µM one dose, 48 h, read-out: growth percentage.
Experiment [13] relates to 786-0. Nature of the experiment: NCI-60 one-dose SRB screening. As to conditions: Homo sapiens, 786-0, Renal Cancer, 10 µM one dose, 48 h, read-out: growth percentage.
Experiment [14] has as its system SK-MEL-5. As to the kind of experiment: NCI-60 one-dose SRB screening. Conditions: Homo sapiens, SK-MEL-5, Melanoma, 10 µM one dose, 48 h, read-out: growth percentage.
Experiment [15] relates to M14. As to the kind of experiment: NCI-60 one-dose SRB screening. As to conditions: Homo sapiens, M14, Melanoma, 10 µM one dose, 48 h, read-out: growth percentage.
In experiment [16] the test system is CAKI-1. As to the kind of experiment: NCI-60 one-dose SRB screening. Conditions: Homo sapiens, CAKI-1, Renal Cancer, 10 µM one dose, 48 h, read-out: growth percentage.
Experiment [17] relates to UO-31. As to the kind of experiment: NCI-60 one-dose SRB screening. Conditions: Homo sapiens, UO-31, Renal Cancer, 10 µM one dose, 48 h, read-out: growth percentage.
For experiment [18], the system named is LOX IMVI. Nature of the experiment: NCI-60 one-dose SRB screening. Conditions: Homo sapiens, Melanoma, 10 µM one dose, 48 h, read-out: growth percentage.
In experiment [19] the test system is MOLT-4. Nature of the experiment: NCI-60 one-dose SRB screening. As to conditions: Homo sapiens, MOLT-4, Leukemia, 10 µM one dose, 48 h, read-out: growth percentage.
Experiment [20] deals with NCI-H226. As to the kind of experiment: NCI-60 one-dose SRB screening. As to conditions: Homo sapiens, NCI-H226, Non-Small Cell Lung Cancer, 10 µM one dose, 48 h, read-out: growth percentage.
Experiment [21] deals with IGROV1. As to the kind of experiment: NCI-60 one-dose SRB screening. As to conditions: Homo sapiens, IGROV-1, IGROV1, Ovarian Cancer, 10 µM one dose, 48 h, read-out: growth percentage.
Experiment [22] relates to T-47D. As to the kind of experiment: NCI-60 one-dose SRB screening. As to conditions: Homo sapiens, T47D, Breast Cancer, 10 µM one dose, 48 h, read-out: growth percentage.

With `Nc1ccc(NCc2c(-c3ccccc3)no[n+]2[O-])cc1` [compound 11, 3-(((4-aminophenyl)amino)methyl)-4-phenyl-1,2,5-oxadiazole 2-oxide], the activity at 10 µM was 107% in experiment [1]; 112% in [2]; 104% in experiment [3]; 102% in [4]; 134% in experiment [5]; 104% in [6]. The activity at 10 µM in experiment [7] came to 100%; in [8], 95.1%; in experiment [9], 101%; in experiment [10], 131%; in experiment [11], 156%; in [12], 93.5%. Besides, the activity at 10 µM in [13] came to 140%; in [14], 112%; in [15] it was 102%; in experiment [16] it was 108%; in experiment [17], 98.9%; in experiment [18], 107%. In addition, the activity at 10 µM in experiment [19] is 91.8%; in experiment [20], 114%; in experiment [21], 88.7%; in [22] it was 101%.
